Data reported in patent US5310559A, “Device for controlled release and delivery to mammalian tissue of pharmacologically active agents incorporating a rate controlling member which comprises an alkylene-alkyl acrylate copolymer” (Hercon Laboratories Corporation, priority 1992, dated 1994).

Columns and labels:
[1] = Flux through human skin from articles of FIG. 4 (Example V); details: reservoir 5% drug
[2] = even at higher clonidine concentrations
[3] = cited from earlier work
[4] = Release of timolol from polymeric reservoir with and without ethylene-methyl acrylate membranes (Example IV); format: physicochemical
Text: FIG. 11 is a graph of timolol release versus time (time versus accumulation) from an ADMEX® 760 reservoir without the use of a control membrane as set forth in Example IV. The graph indicated by reference numeral 111 is the graph of mg/cm^2 of timolol release versus hours. The basis of this graph is more specifically set forth in Example IV.
FIG. 13 is a series of graphs (time versus flux) of timolol release rate through control membranes consisting of copolymers of ethylene and methyl acrylate; 5% and 7% with 1.25 mils thickness and 2.5 mils thickness as more specifically set forth in Example IV. The graph indicated by reference numeral 130 is the graph for a membrane having 7% methyl acrylate repeating monomeric units and a membrane of thickness 1.25 mils. The graph indicated by reference numeral 131 is the graph for use of a membrane containing 5% methyl acrylate repeating monomeric units with a thickness of 1.25 mils. The graph indicated by reference numeral 132 is the graph for the use of a membrane containing 7% methyl acrylate repeating monomeric units and having a thickness of 2.5 mils. The graph indicated by reference numeral 133 is the graph for a membrane containing 5% methyl acrylate repeating monomeric units and having a thickness of 2.5 mils.

[5] = system of European Patent 186,071; cited from earlier work

CC(C)(C)NCC(O)c1cc(Cl)c(N)c(Cl)c1 (centres unmarked) [CLENBUTEROL]
Flux Thru Human Skin ([1]; with membrane 1.25 mil EMA (11% MA)): 15.1 ug/cm^2 /day
Flux Thru Human Skin ([1]; without membrane, 35% PVC resin, 60% ADMEX 760): 34.5 ug/cm^2 /day

Clc1cccc(Cl)c1NC1=NCCN1 [clonidine]
effect of copolymeric EMA membranes on drug diffusion rates in the transdermal patch [2]: lower the drug diffusion rates in the transdermal patch even at higher clonidine concentrations
solubility in mineral oil [3]: approximately 0.5 mg/ml

CC(C)(C)NC[C@H](O)COc1nsnc1N1CCOCC1 [timolol]
release of timolol from the reservoir through ethylene-methyl acrylate membranes ([4]; 5% and 7% methyl acrylate, 1.25 and 2.5 mils thickness): Relatively controlled and constant release of the drug was obtained for a period of seven days
release of timolol from a polymeric reservoir into an aqueous sink ([4]; in the absence of a membrane, ADMEX 760 reservoir): very high and followed typical first order kinetics
release behavior of timolol from a polymeric reservoir ([4]; use of ethylene methyl acrylate membranes): altered by the use of ethylene methyl acrylate membranes
irritation to the skin on transdermal application [5]: substantially no irritation to the skin
